According to PubChem BioAssay AID256 (DTP/NCI, 2004):
Toxic doses and inconclusive results are not listed. How the source made its calls: active means survival T/C of 150% or more; inactive means T/C below 125% in these data. Residues, ends and D or L forms follow the SMILES beside them. *: point of attachment. Dnp = O=[N+]([O-])c1ccc(*)c([N+](=O)[O-])c1

Test system: CD2F1 mice, L1210 leukemia ip, survival T/C
Assay: NCI In Vivo Anticancer Drug Screen. Data for tumor model L1210 Leukemia (intraperitoneal) in CD2F1 (CDF1) mice
Details: higher = longer survival
Outline: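 Tumor-bearing mice (transplanted tumor) were split into treated and vehicle control groups, and the measured endpoint of each treated group was divided by that of its vehicle controls.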

[1] = endpoint: mean survival time, dose: 100.0 mg/kg/injection, schedule: Q04DX003 (ip), vehicle: saline with Tween-80
[2] = endpoint: mean survival time, dose: 200.0 mg/kg/injection, schedule: Q04DX003 (ip), vehicle: saline with Tween-80
[3] = endpoint: mean survival time, dose: 400.0 mg/kg/injection, schedule: Q04DX003 (ip), vehicle: saline with Tween-80
[4] = endpoint: mean survival time, dose: 100.0 mg/kg/injection, schedule: Q01DX001 (ip), vehicle: saline with Tween-80
[5] = endpoint: mean survival time, dose: 100.0 mg/kg/injection, schedule: Q01DX009 (ip), vehicle: saline with Tween-80
[6] = endpoint: mean survival time, dose: 200.0 mg/kg/injection, schedule: Q01DX001 (ip), vehicle: saline with Tween-80
[7] = endpoint: mean survival time, dose: 200.0 mg/kg/injection, schedule: Q01DX009 (ip), vehicle: saline with Tween-80
[8] = endpoint: mean survival time, dose: 400.0 mg/kg/injection, schedule: Q01DX001 (ip), vehicle: saline with Tween-80
[9] = endpoint: mean survival time, dose: 100.0 mg/kg/injection, schedule: Q01DX001 (ip), vehicle: saline
[10] = endpoint: mean survival time, dose: 200.0 mg/kg/injection, schedule: Q01DX001 (ip), vehicle: saline
[11] = endpoint: mean survival time, dose: 100.0 mg/kg/injection, schedule: Q01DX009 (ip), vehicle: saline
[12] = endpoint: mean survival time, dose: 12.5 mg/kg/injection, schedule: Q01DX005 (ip), vehicle: distilled water + Tween-80
[13] = endpoint: mean survival time, dose: 25.0 mg/kg/injection, schedule: Q01DX005 (ip), vehicle: distilled water + Tween-80
[14] = endpoint: mean survival time, dose: 50.0 mg/kg/injection, schedule: Q01DX005 (ip), vehicle: distilled water + Tween-80
[15] = endpoint: mean survival time, dose: 100.0 mg/kg/injection, schedule: Q01DX005 (ip), vehicle: distilled water + Tween-80
[16] = endpoint: mean survival time, dose: 200.0 mg/kg/injection, schedule: Q01DX005 (ip), vehicle: distilled water + Tween-80

Measured: T/C

CC(=O)Nc1c(C#N)ncn1C1OC(CO)C(O)C1O (stereo not drawn)
inactive: endpoint: median survival time, dose: 12.5 mg/kg/injection, schedule: Q01DX005 (ip), vehicle: saline 104 % of control | endpoint: median survival time, dose: 25.0 mg/kg/injection, schedule: Q01DX005 (ip), vehicle: saline 103 % of control | endpoint: median survival time, dose: 50.0 mg/kg/injection, schedule: Q01DX005 (ip), vehicle: saline 92 % of control | endpoint: median survival time, dose: 100.0 mg/kg/injection, schedule: Q01DX005 (ip), vehicle: saline 101 % of control | endpoint: median survival time, dose: 200.0 mg/kg/injection, schedule: Q01DX005 (ip), vehicle: saline 100 % of control

C1CCC2C3CCC(O3)C2C1 (stereo not drawn)
inactive: endpoint: mean survival time, dose: 100.0 mg/kg/injection, schedule: Q04DX003 (ip), vehicle: saline sonified 96 % of control | endpoint: mean survival time, dose: 200.0 mg/kg/injection, schedule: Q04DX003 (ip), vehicle: saline sonified 96 % of control | endpoint: mean survival time, dose: 400.0 mg/kg/injection, schedule: Q04DX003 (ip), vehicle: saline sonified 92 % of control

O=C(O)C(O)(C1CCCCC1)C1CCC2CCC3CCCC1C32 (stereo not drawn)
inactive: [1] 105 % of control | [2] 87 % of control | [3] 105 % of control

CCC1(C)CCC2=C(CCC3C(C)(C(=O)O)CCCC23C)C1 (stereo not drawn)
inactive: [4] 96 % of control | [5] 93 % of control | [6] 91 % of control | [7] 91 % of control | [8] 96 % of control

O=c1nc(NCC2CCCO2)ccn1C1OC(CO)C(O)C1O (stereo not drawn)
inactive: endpoint: median survival time, dose: 12.5 mg/kg/injection, schedule: Q01DX005 (ip), vehicle: water 101 % of control | endpoint: median survival time, dose: 25.0 mg/kg/injection, schedule: Q01DX005 (ip), vehicle: water 101 % of control | endpoint: median survival time, dose: 50.0 mg/kg/injection, schedule: Q01DX005 (ip), vehicle: water 101 % of control | endpoint: median survival time, dose: 100.0 mg/kg/injection, schedule: Q01DX005 (ip), vehicle: water 97 % of control | endpoint: median survival time, dose: 200.0 mg/kg/injection, schedule: Q01DX005 (ip), vehicle: water 98 % of control

CC(CC(=O)O)c1ccc(Cl)cc1 (stereo not drawn)
inactive: [1] 101 % of control | [2] 101 % of control | [3] 101 % of control

CCOC(=O)/C(=C(\[O-])OCC)[n+]1ccccc1
inactive: [1] 97 % of control | [2] 100 % of control | [3] 100 % of control

NCCS(=O)(=O)O
inactive: endpoint: mean survival time, dose: 100.0 mg/kg/injection, schedule: Q01DX009 (ip), vehicle: water 95 % of control | endpoint: mean survival time, dose: 200.0 mg/kg/injection, schedule: Q01DX001 (ip), vehicle: water 98 % of control | endpoint: mean survival time, dose: 200.0 mg/kg/injection, schedule: Q01DX009 (ip), vehicle: water 86 % of control | endpoint: mean survival time, dose: 400.0 mg/kg/injection, schedule: Q01DX001 (ip), vehicle: water 96 % of control | endpoint: mean survival time, dose: 400.0 mg/kg/injection, schedule: Q01DX009 (ip), vehicle: water 92 % of control | endpoint: mean survival time, dose: 800.0 mg/kg/injection, schedule: Q01DX001 (ip), vehicle: water 98 % of control | endpoint: mean survival time, dose: 800.0 mg/kg/injection, schedule: Q01DX009 (ip), vehicle: water 92 % of control | endpoint: mean survival time, dose: 1600.0 mg/kg/injection, schedule: Q01DX001 (ip), vehicle: water 107 % of control

O=c1cc(-c2ccc3c(c2)OCO3)oc2ccccc12
inactive: endpoint: mean survival time, dose: 50.0 mg/kg/injection, schedule: Q01DX001 (ip), vehicle: saline 102 % of control | [9] 98 % of control | [10] 98 % of control | endpoint: mean survival time, dose: 400.0 mg/kg/injection, schedule: Q01DX001 (ip), vehicle: saline 92 % of control

O=C1OCC/C1=C1\CCCO1
inactive: [1] 106 % of control | [2] 101 % of control | [3] 95 % of control

CCC(C)CC(O)CC1=CCCCC1 (stereo not drawn)
inactive: [1] 91 % of control | [2] 95 % of control | [3] 106 % of control

OC1c2ccccc2-c2ccccc21
inactive: [11] 88 % of control | endpoint: mean survival time, dose: 200.0 mg/kg/injection, schedule: Q01DX009 (ip), vehicle: saline 88 % of control | endpoint: mean survival time, dose: 400.0 mg/kg/injection, schedule: Q01DX009 (ip), vehicle: saline 87 % of control

C1c2nnnn2Cc2nnnn21
inactive: endpoint: mean survival time, dose: 12.5 mg/kg/injection, schedule: Q04DX002 (ip), vehicle: saline 96 % of control | endpoint: mean survival time, dose: 25.0 mg/kg/injection, schedule: Q04DX002 (ip), vehicle: saline 104 % of control | endpoint: mean survival time, dose: 50.0 mg/kg/injection, schedule: Q04DX002 (ip), vehicle: saline 93 % of control

Cc1c(Cc2ccccc2)[n+](=O)c2ccccc2n1[O-]
inactive: [1] 97 % of control | [2] 101 % of control | [3] 98 % of control

CC1(C)N=C(N)N=C(N)N1c1cccc(Cl)c1Cl
inactive: endpoint: mean survival time, dose: 5.0 mg/kg/injection, schedule: Q04DX003 (ip), vehicle: saline 105 % of control | endpoint: mean survival time, dose: 10.0 mg/kg/injection, schedule: Q04DX003 (ip), vehicle: saline 112 % of control | endpoint: mean survival time, dose: 20.0 mg/kg/injection, schedule: Q04DX003 (ip), vehicle: saline 115 % of control

CCCCC(OC(=O)Nc1cccc2ccccc12)C(C)C (stereo not drawn)
inactive: [1] 91 % of control | [2] 88 % of control

C[n+]1ccn(Cc2ccc([N+](=O)[O-])cc2)c1
inactive: [9] 100 % of control | [10] 101 % of control

NS(=O)(=O)c1cc2c(cc1Cl)NCNS2(=O)=O
inactive: [5] 98 % of control | [7] 98 % of control | endpoint: mean survival time, dose: 400.0 mg/kg/injection, schedule: Q01DX009 (ip), vehicle: saline with Tween-80 96 % of control

NCCOS(=O)(=O)O
inactive: endpoint: mean survival time, dose: 25.0 mg/kg/injection, schedule: Q01DX009 (ip), vehicle: saline 102 % of control | endpoint: mean survival time, dose: 50.0 mg/kg/injection, schedule: Q01DX009 (ip), vehicle: saline 98 % of control | [11] 96 % of control

CCCCCCCCCCNC1=C(Cl)C(=O)c2ccccc2C1=O
inactive: endpoint: mean survival time, dose: 25.0 mg/kg/injection, schedule: Q04DX003 (ip), vehicle: saline with Tween-80 98 % of control | endpoint: mean survival time, dose: 50.0 mg/kg/injection, schedule: Q04DX003 (ip), vehicle: saline with Tween-80 94 % of control | [1] 95 % of control

CNC(=S)NNC(=O)C(=O)NNC(=S)NC
inactive: [4] 98 % of control | [6] 98 % of control | [8] 97 % of control

c1ccc2nc3c(cc2c1)CCC3
inactive: endpoint: mean survival time, dose: 100.0 mg/kg/injection, schedule: Q04DX003 (ip), vehicle: saline + alcohol 95 % of control | endpoint: mean survival time, dose: 200.0 mg/kg/injection, schedule: Q04DX003 (ip), vehicle: saline + alcohol 95 % of control

Nc1ncnc2nc(C3COCCO3)[nH]c12 (stereo not drawn)
inactive: [12] 90 % of control | [13] 94 % of control | [14] 94 % of control | [15] 96 % of control | [16] 104 % of control

NCC(=O)NC(CSc1ccc([N+](=O)[O-])cc1[N+](=O)[O-])C(=O)NC(CCC(=O)O)C(=O)O (stereo not drawn) (H-Gly-Cys(Dnp)-Glu-OH; configuration not given here)
inactive: [1] 103 % of control | [2] 101 % of control | [3] 98 % of control

CC(C)(C)OC(=O)NC(=O)CCC(N)C(=O)O (stereo not drawn)
inactive: [1] 94 % of control | [2] 91 % of control | [3] 92 % of control

O=N/N=c1/c2[nH]cnc2ncn1O
inactive: [12] 110 % of control | [13] 93 % of control | [14] 89 % of control | [15] 88 % of control | [16] 93 % of control

N#CC(CC(=O)OCc1ccccc1)NC(=O)OCc1ccccc1 (stereo not drawn)
inactive: [2] 86 % of control | [3] 94 % of control
